Data as given in patent publication US6528675B1, “Cyanohydrin ethers and esters as high-sensitivity enzyme substrates” (The Regents of the University of California, priority 2001, dated 2003).

How the values were obtained:
[1] = Substrate stability in buffer, UV detection; type: physicochemical
Description: (§1) The same two invention substrates and two prior art substrates were tested for stability by both UV detection and fluorescence detection under typical assay conditions.
(§2) Tris maleate buffers (0.1 M) at pH ranging from 6.0 to 9.0 in intervals of 1.0 were used, and substrate was added to 10 μM final concentration. […] The fluorescence samples were read with excitation at 360 nm and emission at 460 nm (for pH 6.0), 465 nm (for pH 7.0), 485 nm (pH 8.0), and 510 nm (pH 9.0) for the methylumbelyl acetate, and with excitation at 330 nm and emission at 460 nm for the two test compounds, in all cases, the readings over 5-minute periods.

[2] = Substrate stability in buffer, fluorescence detection; type: physicochemical
Description: as §1, §2

[3] = tested on: esterase from a rat liver microsomal preparation; assay: Specific activity of esterase against substrates; type: biochemical, Fisher 344 rats; details: Rat liver microsome, pH 8.0, 10 μM substrate, fluorescence 330/460 nm
Description: (§3) The esterases were porcine esterase purchased from Sigma Chemical Company, St. Louis, Mo., USA, esterase from a rat liver microsomal preparation from 8-week-old Fisher 344 rats, and homogenates of Heliothis virescens from both pyrethroid-susceptible and -resistant strains of tobacco budworm. The substrate in each case was added to a tris-maleate buffer (pH 8.0, 0.1 m) to a final substrate concentration of 10 μM, followed by the addition of the enzyme preparation. The samples were then immediately read by fluorometer at 460 nm for one minute (excitation at 330 nm). The results are listed in Table VI, where “Compound I” denotes the Example 1 substrate, and “Compound II” denotes the Example 4 substrate.

[4] = tested on: homogenate of Heliothis virescens, pyrethroid-resistant strain; assay: Specific activity of esterase against substrates; type: biochemical; details: H. virescens (resistant), pH 8.0, 10 μM substrate, fluorescence 330/460 nm
Description: as §3

[5] = tested on: homogenate of Heliothis virescens, pyrethroid-susceptible strain; assay: Specific activity of esterase against substrates; type: biochemical; details: H. virescens (susceptible), pH 8.0, 10 μM substrate, fluorescence 330/460 nm
Description: as §3

porcine esterase [6] = assay: Specific activity of esterase against substrates; type: biochemical; details: pH 8.0, 10 μM substrate, fluorescence 330/460 nm
Description: as §3

cytochrome P450 = assay: Substrate response to P450 enzyme activity, rat microsomal enzyme preparation; type: biochemical, rats; details: pH 7.6, 37° C., substrate 10 mM final concentration, average of three tests
From the text: This example compares four cytochrome P450 substrates within the scope of this invention with two cytochrome P450 substrates that are outside the scope of this invention. The four invention substrates were methoxynaphthalen-2-yl acetonitrile (whose synthesis is shown in Example 8 above and which is designated below as Compound III), ethoxynaphthalen-2-yl acetonitrile (synthesis shown in Example 9, Compound IV), benzoxynaphthalen-2-yl acetonitrile (synthesis shown in Example 10, Compound V), and pentoxynaphthalen-2-yl acetonitrile (synthesis shown in Example 11, Compound VI). The substrates outside the scope of the invention were ethoxyresorufin (designated below as Compound A) and pentoxyresorufin (designated below as Compound B). The structures of these last two substrates are as follows: [drawing 56]
All substrates were tested against a microsomal enzyme preparation from 8-week-old Fisher […] rats, by first combining 890 mL of the preparation with 2 mL of phosphate buffer (pH 7.6, 0.2 M) and incubating the mixture at 37° C. for 5 minutes. The substrate (10 mL) was then added (10 mM final concentration), followed by an appropriate signal generating system (100 mL). The samples were immediately read by fluorometer at 460 nm for 1 minute with excitation at 330 nm. The results in terms of specific activity, both with and without the enzyme system, are shown in Table VII, in which each entry represents an average of three tests.

[7] = Change in optical properties, UV absorption of esters and hydrolysis products; type: physicochemical; details: for ε (molar absorptivity): in M-1 cm-1 (unit assumed)
From the text: The substrates representing the invention were (R/S)-acetic acid cyano-(6-methoxynaphthalen-2-yl)-methyl ester (the title compound of Synthesis Example 1 above) and (trans/cis)-3-(2,2-dichlorovinyl)-2,2-dimethylcyclopropanecarboxylic acid cyano-(6-methoxynaphthalen-2-yl)-methyl ester (the title compound of Synthesis Example 2 above).

[8] = Change in optical properties, fluorescence of esters and hydrolysis products; type: physicochemical
From the text: The substrates representing the invention were (R/S)-acetic acid cyano-(6-methoxynaphthalen-2-yl)-methyl ester (the title compound of Synthesis Example 1 above) and (trans/cis)-3-(2,2-dichlorovinyl)-2,2-dimethylcyclopropanecarboxylic acid cyano-(6-methoxynaphthalen-2-yl)-methyl ester (the title compound of Synthesis Example 2 above). The substrates of the prior art were methylumbelyl acetate (for detection by fluorescence emission) and 2-naphthacetate (for detection by UV absorption) in assay solutions with different pH values. These prior art substrates were selected because both are widely used and both have aromatic systems similar to the two test compounds.
Again using tris-maleate at pH levels of 6.5, 7.5, and 8.5, fluorescence studies were performed at concentrations of 10 μM, and fluorescence of the starting esters and the hydrolysis products (hydroxycoumarin in the case of methylumbelyl acetate and 6-methoxy-naphthaldehyde in the case of the Example 1 substrate) were determined by conventional instrumentation. The results are listed in Table III in which “MUA” denotes methylumbelyl acetate, “Compound I” denotes the Example 1 substrate, “Ex” denotes the optimal excitation wavelength in nm, “Emmax” denotes the maximal emission wavelength in nm, and “RFU” denotes the relative fluorescence units multiplied by 1,000.

porcine esterase [9] = assay: Sensitivity of substrate to enzyme strength; type: biochemical; details: pH 8.0, 10 μM substrate, 1 unit=1 μmol/min/mL
Description: This example illustrates the sensitivity of the substrate to the enzyme, and compares a substrate in accordance with the present invention to two prior art substrates. […] The enzyme was porcine esterase.
A tris-maleate buffer at pH 8.0 (0.1 M) was used. The procedure consisted of adding substrate to a test tube containing 3 mL of buffer to a final substrate concentration of 10 μM, then adding porcine esterase at strengths of 0.06, 0.09. 0.12, 0.18, 0.30, 0.60, 0.9 and 1.2 unit, in which 1 unit=1 μmol/min/mL. […] The enzyme sensitivities for each substrate and detection method were defined as the minimal amount of enzyme per mL required to produce a signal from the substrate that was at least three times greater than the background noise.

[10] = pH 6, tris maleate 0.1 M, 10 μM substrate, no enzyme, 5-minute reading
[11] = pH 7, tris maleate 0.1 M, 10 μM substrate, no enzyme, 5-minute reading
[12] = pH 8, tris maleate 0.1 M, 10 μM substrate, no enzyme, 5-minute reading
[13] = pH 9, tris maleate 0.1 M, 10 μM substrate, no enzyme, 5-minute reading

SMILES	Substrate stability, UV Absorption [1, 10] [mAbs/min]	Substrate stability, UV Absorption [1, 11] [mAbs/min]	Substrate stability, UV Absorption [1, 12] [mAbs/min]	Substrate stability, UV Absorption [1, 13] [mAbs/min]	Specific Activity [3]	Specific Activity [4]	Specific Activity [5]	Specific Activity (porcine esterase [6])	OD (optical density) ([7]; tris-maleate pH 6.5, 10 μM)	ε (molar absorptivity) ([7]; tris-maleate pH 6.5, 10 μM)	OD (optical density) ([7]; tris-maleate pH 7.5, 10 μM)	ε (molar absorptivity) ([7]; tris-maleate pH 7.5, 10 μM)	OD (optical density) ([7]; tris-maleate pH 8.5, 10 μM)	ε (molar absorptivity) ([7]; tris-maleate pH 8.5, 10 μM)	Emmax (maximal emission wavelength) ([8]; tris-maleate pH 6.5, 10 μM) [nm]	Ex (optimal excitation wavelength) ([8]; tris-maleate pH 6.5, 10 μM) [nm]	RFU (relative fluorescence units multiplied by 1,000) ([8]; tris-maleate pH 6.5, 10 μM)	Emmax (maximal emission wavelength) ([8]; tris-maleate pH 7.5, 10 μM) [nm]	Ex (optimal excitation wavelength) ([8]; tris-maleate pH 7.5, 10 μM) [nm]	RFU (relative fluorescence units multiplied by 1,000) ([8]; tris-maleate pH 7.5, 10 μM)	other results
COc1ccc2cc(C(C#N)OC(=O)C3C(C=C(Cl)Cl)C3(C)C)ccc2c1 (mixture of isomers) [Compound II, (trans/cis)-3-(2,2-Dichlorovinyl)-2,2-dimethylcyclopropanecarboxylic Acid Cyano-(6-methoxynaphthalen-2-yl) Methyl Ester]	<0.01	<0.01	<0.01	0.05	270 ± 18 pmol/min/mg protein	840 ± 22 pmol/min/mg protein	150 ± 9 pmol/min/mg protein	142,000 ± 520 pmol/min/mg protein													Substrate stability, Fluorescence [2, 10]: <1 pmol/min; Substrate stability, Fluorescence [2, 11]: <1 pmol/min; Substrate stability, Fluorescence [2, 12]: <1 pmol/min; Substrate stability, Fluorescence [2, 13]: 10 pmol/min; Specific Activity, With Enzyme System (cytochrome P450; with enzyme system): 102.4 ± 7.5 pmol/min/mg protein; Specific Activity, Without Enzyme System (cytochrome P450; without enzyme system): 33.4 ± 2.0 pmol/min/mg protein
COc1ccc2cc(C(C#N)OC(C)=O)ccc2c1 (racemic) [Compound I, (R/S)-Acetic Acid Cyano-(6-methoxy-naphthalen-2-yl) Methyl Ester]					39,800 ± 600 pmol/min/mg protein	25,100 ± 425 pmol/min/mg protein	9,700 ± 220 pmol/min/mg protein	2,911,000 ± 1,780 pmol/min/mg protein	0.086	3,000	0.137	3,420	0.142	3,550	410	360	241 RFU	450	360	581 RFU	λmax ([7]; tris-maleate pH 6.5, 10 μM): 287 nm; λmax ([7]; tris-maleate pH 7.5, 10 μM): 287 nm; λmax ([7]; tris-maleate pH 8.5, 10 μM): 287 nm; emission peak ([8]; over the three pH levels tested (6.5, 7.5, 8.5)): 366 nm; Emmax (maximal emission wavelength) ([8]; tris-maleate pH 8.5, 10 μM): 450 nm; Ex (optimal excitation wavelength) ([8]; tris-maleate pH 8.5, 10 μM): 360 nm; RFU (relative fluorescence units multiplied by 1,000) ([8]; tris-maleate pH 8.5, 10 μM): 3,708 RFU; Substrate stability, UV Absorption ([1]; 5 min, 10 μM, pH 6): <0.01 mAbs/min; Substrate stability, UV Absorption ([1]; 5 min, 10 μM, pH 7): <0.01 mAbs/min; Substrate stability, UV Absorption ([1]; 5 min, 10 μM, pH 8): <0.01 mAbs/min; Substrate stability, UV Absorption ([1]; 5 min, 10 μM, pH 9): 0.103 mAbs/min; Substrate stability, Fluorescence ([2]; 5 min, 10 μM, pH 6): <1 pmol/min; Substrate stability, Fluorescence ([2]; 5 min, 10 μM, pH 7): 8 pmol/min; Substrate stability, Fluorescence ([2]; 5 min, 10 μM, pH 8): 59 pmol/min; Substrate stability, Fluorescence ([2]; 5 min, 10 μM, pH 9): 138 pmol/min; Sensitivity (minimal amount of enzyme per mL giving a signal at least three times background noise) (porcine esterase [9]; Fluorescence detection): 0.00002; Sensitivity (minimal amount of enzyme per mL giving a signal at least three times background noise) (porcine esterase [9]; UV detection): 0.001; melting point: 84 to 85 °C
CC(=O)Oc1ccc2ccccc2c1 [Compound 2-NA, 2-naphthacetate, reference compound]	<0.01	0.05	0.44	0.555					0.14	3,500	0.141	3,500	0.133	3,300							Sensitivity (minimal amount of enzyme per mL giving a signal at least three times background noise) (porcine esterase [9]; UV detection): 0.002
CC(=O)Oc1ccc2c(C)cc(=O)oc2c1 [MUA, methylumbelyl acetate, reference compound]															366	330	2,672 RFU	366	330	1,350 RFU	Emmax (maximal emission wavelength) ([8]; tris-maleate pH 8.5, 10 μM): 366 nm; Ex (optimal excitation wavelength) ([8]; tris-maleate pH 8.5, 10 μM): 330 nm; RFU (relative fluorescence units multiplied by 1,000) ([8]; tris-maleate pH 8.5, 10 μM): 1,600 RFU; Sensitivity (minimal amount of enzyme per mL giving a signal at least three times background noise) (porcine esterase [9]; Fluorescence detection): 0.0005
